Measured values taken from patent publication US8569318B2, “Tetrahydro-pyrazolo[1,5-a]pyrido-pyrimidines as antagonists of serotonin 5-HT6 receptors, methods for the production and use thereof” (priority 2008, dated 2013).
Structures can show the parent of a compound that is named as a salt.

Columns and labels:
[1] = test system: mice; assay: Passive Avoidance of mice in the Shuttle Chamber, memory disturbed by MK-801; type: in vivo; details: MK-801 0.1 mg/kg, injected 30 minutes before training
[2] = target: recombinant human 5-HT6 receptors (Homo sapiens (Human), UniProt P50406); assay: Competitive radioligand binding ([3H] Lysergic acid diethylamide) to serotonin 5-HT6 receptors, HeLa cell membranes; details: for IC50: 1.5 nM [3H] Lysergic acid diethylamide, 120 min at 37° C.
Description: Screening of the disclosed compounds for their potential ability to interact with serotonin 5-HT6 receptors was carried out by the method of radioligand binding. For this purpose membrane species were prepared from HeLa cells expressing recombinant human 5-HT6 receptors, by means of cells homogenization in glass homogenizer with subsequent separation of plasmatic membranes from cell nucli, mitochondria's and cell wreckages by differential centrifugation. Determination of tested compounds binding to 5-HT6 receptors was carried out according to the method described in [Monsma F J Jr, Shen Y, Ward R P, Hamblin M W and Sibley D R, Cloning and expression of a novel serotonin receptor with high affinity for tricyclic psychotropic drugs. Mol. Pharmacol. 43:320-327, 1993]. […] After the incubation the samples were filtered in vacuo on glass-microfiber filters G/F (Millipor, USA), filters were washed three times with cold solution of the medium and radioactivity was measured by scintillation counter MicroBeta 340 (PerkinElmer, USA). […] Methiothepin was used as a positive control. Binding of the tested compounds with the receptor was determined by their ability to displace the radioligand and was expressed in percent of displacement. The percent of displacement was calculated according to the following equation:
[formula] wherein: TA—was overall radioactivity in the presence of radioligand only, CA—was radioactivity in the presence of radioligand and tested compound and NA—was radioactivity in the presence of radioligand and Serotonin (5 μM).

recombinant human 5-HT6 receptors, sequence (P50406 whole entry): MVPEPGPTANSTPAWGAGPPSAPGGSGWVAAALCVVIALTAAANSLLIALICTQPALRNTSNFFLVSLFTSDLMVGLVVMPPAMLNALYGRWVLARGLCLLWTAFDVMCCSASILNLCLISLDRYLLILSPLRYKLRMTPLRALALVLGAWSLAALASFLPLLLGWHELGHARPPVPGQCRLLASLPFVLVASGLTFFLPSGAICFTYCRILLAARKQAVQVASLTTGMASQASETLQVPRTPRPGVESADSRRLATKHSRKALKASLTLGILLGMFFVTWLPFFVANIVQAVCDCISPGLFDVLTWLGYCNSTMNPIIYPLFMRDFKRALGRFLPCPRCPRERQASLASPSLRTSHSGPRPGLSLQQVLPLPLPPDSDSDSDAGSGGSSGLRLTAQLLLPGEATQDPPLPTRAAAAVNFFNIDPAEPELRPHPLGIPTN

IC50 [2] [nM]	Ki ([2]; Ki=IC50/(1+[L]/KD)) [nM]	Compound	nootropic effect (enhancement of memory disturbed by MK-801) [1]
–	–	Cc1nn2c3c(cnc2c1S(=O)(=O)c1ccccc1)CN(C)CC3 [1.1(3).HCl]	ability of active ingredient 1.1(3).HCl to produce nootropic effect
801	372	CSc1nn2cc3c(nc2c1S(=O)(=O)c1ccccc1)CCN(C)C3 [2.2(2)]	–
4.61	–	Cc1nn2c3c(cnc2c1S(=O)(=O)c1ccccc1)CNCC3 [1.1(1)]	–
> 1000	–	CSc1nn2cc3c(nc2c1S(=O)(=O)c1ccc(F)cc1)CCN(C)C3 [2.2(3)]	–
